Experimental data: patent publication US12613234B2, “Structural-profiling of analytes by nanopore trapping” (NANJING UNIVERSITY, priority 2021, dated 2026)
Several values for one entry are separate records, joined by “and”; a condition that tells them apart may be missing. Equal values may be shown once. Read-outs that look alike come from different tables or passages of the source.

Legend:
[1] = target: wtCaM (Homo sapiens, UniProt P0DP23); test: Binding capacity of metal ions to wtCaM monitored by MspA nanopore trapping
[2] = tested on: M2 MspA; design: species or system Mycobacterium smegmatis; settings: for mean dwell time (τoff), mean ± std / mean interevent duration time (τon), mean ± std: N=3
[3] = […] KCl/1.0M CaCl2, +100 mV, listed as LYSOZYME
[4] = […] KCl/[…] KCl, +100 mV, listed as LYSOZYME
[5] = […] KCl/[…] KCl, +100 mV, listed as APO-MYOGLOBIN

Molecule: [Pb+2] [Pb^2+]
- Proportion of Holo-wtCaM events (binding capacity) [1]: 62.0±3.1%
- Proportion of Transient States events [1]: 38.0 ± 3.1%
- binding capacity to wtCaM, in words [1]: even stronger than that of Ca^2+
- ΔI/I0 of Holo-wtCaM events [1]: 90.6 ± 0.7%
- ΔI/I0 of Transient States events [1]: 77.91 ± 0.13%

Molecule: lysozyme: lysozyme from chicken egg white, representative basic protein
- 1/τon ([2]; +60 mV, […] KCl/1.0M CaCl2): (1.0 ± 0.2) × 10^−2 MS^−1
- τoff ([2]; +60 mV, […] KCl/1.0M CaCl2): 35.5 ± 0.9 MS
- 1/τon ([2]; +80 mV, […] KCl/1.0M CaCl2): (1.4 ± 0.4) × 10^−2 MS^−1
- τoff ([2]; +80 mV, […] KCl/1.0M CaCl2): 47.8 ± 6.7 MS
- 1/τon ([2]; +100 mV, […] KCl/1.0M CaCl2): (1.8 ± 0.2) × 10^−2 MS^−1
- τoff ([2]; +100 mV, […] KCl/1.0M CaCl2): 47.3 ± 3.5 MS
- 1/τon ([2]; +120 mV, […] KCl/1.0M CaCl2): (1.8 ± 0.3) × 10^−2 MS^−1
- τoff ([2]; +120 mV, […] KCl/1.0M CaCl2): 38.8 ± 8.9 MS
- mean dwell time (τoff), mean ± std ([2]; […] KCl/1.0M CaCl2, +100 mV): 47.3±3.5 MS
- mean interevent duration time (τon), mean ± std ([2]; […] KCl/1.0M CaCl2, +100 mV): 38.0±11.0 MS
- mean dwell time (τoff), mean ± std [2, 3]: 47.3 ± 3.5 MS
- mean interevent duration time (τon), mean ± std [2, 3]: 38.0 ± 11.0 MS
- mean dwell time (τoff), mean ± std ([2]; […] KCl/[…] KCl, +100 mV): 5.4±0.2 MS
- mean interevent duration time (τon), mean ± std ([2]; […] KCl/[…] KCl, +100 mV): 460.7±51.2 MS
- mean dwell time (τoff), mean ± std [2, 4]: 5.4 ± 0.2 MS
- mean interevent duration time (τon), mean ± std [2, 4]: 460.7 ± 51.2 MS
- 1/τon ([2]; concentration 0.21 (MM), +100 mV): (6.4 ± 2.6) × 10^−3 MS^−1
- 1/τon ([2]; concentration 0.42 (MM), +100 mV): (2.8 ± 0.8) × 10^−2 MS^−1
- 1/τon ([2]; concentration 0.63 (MM), +100 mV): (4.2 ± 1.2) × 10^−2 MS^−1
- 1/τon ([2]; concentration 0.83 (MM), +100 mV): (5.5 ± 0.7) × 10^−2 MS^−1

Molecule: [Mg+2] [Mg^2+]
- Proportion of Apo-wtCaM events ([1]; 2 mM ion, 0.6 μM wtCaM): 96.0 ± 1.7%
- Proportion of Holo-wtCaM events (binding capacity) ([1]; 2 mM ion, 0.6 μM wtCaM): 4.0% and 4.0 ± 1.7%
- ΔI/I0 of Apo-wtCaM events ([1]; 2 mM ion, 0.6 μM wtCaM): 52.6 ± 0.4%
- ΔI/I0 of Holo-wtCaM events ([1]; 2 mM ion, 0.6 μM wtCaM): 88.8 ± 1.1%
- binding capacity to wtCaM, in words ([1]; nanopore trapping): poor binding capacity

Molecule: [Tb+3] [Tb^3+]
- ion concentration that fully activates apo-wtCaM ([1]; 0.3 μM apo-wtCaM): 5 µM
- concentration regime in which Tb-wtCaM events were observed ([1]; 0.3 μM wtCaM): 0.05 to 120 µM
- concentration regime in which the pre-aggregated state was observed ([1]; 0.3 μM wtCaM): 15 to 200 µM
- ion concentration with complete disappearance of events (aggregation of wtCaM) ([1]; 0.3 μM wtCaM): 500 µM
- binding capacity to wtCaM, in words ([1]; nanopore trapping): stronger than that of Ca^2+

Molecule: [Ca+2] [Ca^2+]
- ion concentration that fully activates wtCaM ([1]; 0.3 μM wtCaM): 0.6 mM
- Proportion of Apo-wtCaM events ([1]; 2 mM ion, 0.6 μM wtCaM): 21.2 ± 3.1%
- Proportion of Holo-wtCaM events (binding capacity) ([1]; 2 mM ion, 0.6 μM wtCaM): 54% and 54.1 ± 4.8%
- Proportion of Transient States events ([1]; 2 mM ion, 0.6 μM wtCaM): 24.8 ± 2.7%
- ΔI/I0 of Apo-wtCaM events ([1]; 2 mM ion, 0.6 μM wtCaM): 56.8±1.1%
- ΔI/I0 of Holo-wtCaM events ([1]; 2 mM ion, 0.6 μM wtCaM): 90.4±0.2%
- ΔI/I0 of Transient States events ([1]; 2 mM ion, 0.6 μM wtCaM): 75.0±2.1%
- binding capacity to wtCaM, in words ([1]; nanopore trapping): strong binding affinity

Molecule: [Ba+2] [Ba^2+]
- Proportion of Apo-wtCaM events [1]: 95.6 ± 2.9%
- Proportion of Holo-wtCaM events (binding capacity) [1]: 4.4% and 4.4 ± 2.9%
- binding capacity to wtCaM, in words [1]: poor binding capacity
- ΔI/I0 of Apo-wtCaM events [1]: 51.6 ± 0.6%
- ΔI/I0 of Holo-wtCaM events [1]: 86.9 ± 1.0%

Molecule: [Sr+2] [Sr^2+]
- Proportion of Apo-wtCaM events ([1]; 2 mM ion, 0.6 μM wtCaM): 73.1 ± 1.4%
- Proportion of Holo-wtCaM events (binding capacity) ([1]; 2 mM ion, 0.6 μM wtCaM): 14.0±2.4%
- Proportion of Transient States events ([1]; 2 mM ion, 0.6 μM wtCaM): 12.6 ± 0.4%
- ΔI/I0 of Apo-wtCaM events ([1]; 2 mM ion, 0.6 μM wtCaM): 54.0 ± 0.5%
- ΔI/I0 of Holo-wtCaM events ([1]; 2 mM ion, 0.6 μM wtCaM): 90.22 ± 0.16%
- ΔI/I0 of Transient States events ([1]; 2 mM ion, 0.6 μM wtCaM): 75.7 ± 1.5%
- binding capacity to wtCaM, in words ([1]; nanopore trapping): slightly better binding capacity to wtCaM than that of Mg^2+ or Ba^2+

B1: apo-myoglobin: heme-free myoglobin from equine skeletal muscle (protein, UniProt P68082 2-154, looked up)
Myoglobin: GLSDGEWQQVLNVWGKVEADIAGHGQEVLIRLFTGHPETLEKFDKFKHLKTEAEMKASEDLKKHGTVVLTALGGILKKKGHHEAELKPLAQSHATKHKIPIKYLEFISDAIIHVLHSKHPGDFGADAQGAMTKALELFRNDIAAKYKELGFQG
modifications: heme-free apo form
notes: heme-free myoglobin from equine skeletal muscle
- 1/τon ([2]; +60 mV, […] KCl/1.0M CaCl2): (1.0 ± 0.3) × 10^−3 MS^−1
- τoff ([2]; +60 mV, […] KCl/1.0M CaCl2): 99.3 ± 20.2 MS
- 1/τon ([2]; +80 mV, […] KCl/1.0M CaCl2): (2.0 ± 0.5) × 10^−3 MS^−1
- τoff ([2]; +80 mV, […] KCl/1.0M CaCl2): 317.5 ± 18.3 MS
- 1/τon ([2]; +100 mV, […] KCl/1.0M CaCl2): (2.8 ± 0.3) × 10^−3 MS^−1
- τoff ([2]; +100 mV, […] KCl/1.0M CaCl2): 531.0 ± 27.5 MS
- 1/τon ([2]; +120 mV, […] KCl/1.0M CaCl2): (4.5 ± 0.6) × 10^−3 MS^−1
- τoff ([2]; +120 mV, […] KCl/1.0M CaCl2): 522.0 ± 15.0 MS
- mean dwell time (τoff), mean ± std ([2]; […] KCl/1.0M CaCl2, +100 mV): 531.0±27.5 MS
- mean interevent duration time (τon), mean ± std ([2]; […] KCl/1.0M CaCl2, +100 mV): 365.1 ± 27.9 MS
- mean dwell time (τoff), mean ± std ([2]; […] KCl/1.0M CaCl2, +100 mV, listed as APO-MYOGLOBIN): 531.0 ± 27.5 MS
- mean dwell time (τoff), mean ± std ([2]; […] KCl/[…] KCl, +100 mV): 7.3±1.3 MS
- mean dwell time (τoff), mean ± std [2, 5]: 7.3 ± 1.3 MS
- mean interevent duration time (τon), mean ± std [2, 5]: 3640.4 ± 633.6 MS
- 1/τon ([2]; concentration 0.04 (MM), +100 mV): (4.4 ± 0.5) × 10^−4 MS^−1
- 1/τon ([2]; concentration 0.07 (MM), +100 mV): (9.9 ± 0.9) × 10^−3 MS^−1
- 1/τon ([2]; concentration 0.11 (MM), +100 mV): (2.1 ± 0.2) × 10^−3 MS^−1
- 1/τon ([2]; concentration 0.14 (MM), +100 mV): (2.8 ± 0.2) × 10^−3 MS^−1
